# Experimental data reported in patent US10206394B2, “Herbicidal compounds” (Syngenta Participations AG, priority 2014, dated 2019).
# Where two headings read alike, the source gives them in different places.
# How the values were obtained:
# Assay in all cases: Glasshouse assay for herbicidal activity (pre- and post-emergence), percentage phytotoxicity
# Type in all cases: in vivo
# [1] = tested on: Alopecurus myosuroides (ALOMY); settings: Alopecurus myosuroides
# Procedure: (§1) Test—Glasshouse Assay for Herbicidal Activity
# (§2) Seeds of a variety of monocotyledonous and dicotyledonous test plants are sown in standard soil in pots. The plants are cultivated for one day (for pre-emergence (PRE)) or for about 12 days (for post-emergence (POST)) under controlled conditions in a glasshouse (warm climate species at 24/18° C., cool climate species at 20/16° C., both at day/night; 16 hours light; 65% humidity).
# (§3) The test plants are then grown on, in a glasshouse (greenhouse) under controlled conditions (warm climate species at 24/18° C., cool climate species at 20/16° C., both at day/night; 16 hours light; 65% humidity) and are watered twice daily. 15 days after application of the test herbicide (15 DAA) (for post-emergence), and 20 days after application of the test herbicide (20 DAA) (for pre-emergence), the test plants are evaluated visually, and an assessed percentage phytotoxicity score is given for each herbicidal application on each plant species (with 100%=total damage to plant; 0%=no damage to plant).
# (§4) The plant species tested are as follows: Alopecurus myosuroides (ALOMY), Avena fatua (AVEFA), Lolium perenne (LOLPE), Echinochloa crus-galli (ECHCG).
# Avena fatua (AVEFA) = settings: Avena fatua
# Procedure: as §1, §2, §3, §4
# [2] = tested on: Echinochloa crus-galli (ECHCG); settings: Echinochloa crus-galli
# Procedure: as §1, §2, §3, §4
# Lolium perenne (LOLPE) = settings: Lolium perenne
# Procedure: as §1, §2, §3, §4
# [3] = post-emergence, 360 h, Rate 250 g/ha, post-emergence, visual assessment 15 DAA, 100%=total damage, 0%=no damage, read-out: Post-emergence herbicidal activity (percentage phytotoxicity) ALOMY POST
# [4] = pre-emergence, 480 h, Rate 250 g/ha, pre-emergence, visual assessment 20 DAA, 100%=total damage, 0%=no damage, read-out: Pre-emergence herbicidal activity (percentage phytotoxicity) ALOMY PRE
# [5] = post-emergence, 360 h, Rate 250 g/ha, post-emergence, visual assessment 15 DAA, 100%=total damage, 0%=no damage, read-out: Post-emergence herbicidal activity (percentage phytotoxicity) AVEFA POST
# [6] = pre-emergence, 480 h, Rate 250 g/ha, pre-emergence, visual assessment 20 DAA, 100%=total damage, 0%=no damage, read-out: Pre-emergence herbicidal activity (percentage phytotoxicity) AVEFA PRE
# [7] = post-emergence, 360 h, Rate 250 g/ha, post-emergence, visual assessment 15 DAA, 100%=total damage, 0%=no damage, read-out: Post-emergence herbicidal activity (percentage phytotoxicity) ECHCG POST
# [8] = pre-emergence, 480 h, Rate 250 g/ha, pre-emergence, visual assessment 20 DAA, 100%=total damage, 0%=no damage, read-out: Pre-emergence herbicidal activity (percentage phytotoxicity) ECHCG PRE
# [9] = post-emergence, 360 h, Rate 250 g/ha, post-emergence, visual assessment 15 DAA, 100%=total damage, 0%=no damage, read-out: Post-emergence herbicidal activity (percentage phytotoxicity) LOLPE POST
# [10] = pre-emergence, 480 h, Rate 250 g/ha, pre-emergence, visual assessment 20 DAA, 100%=total damage, 0%=no damage, read-out: Pre-emergence herbicidal activity (percentage phytotoxicity) LOLPE PRE
smiles,measurement,setting,value
C/C=C/c1cc(C)c(C2C(=O)CC(CC(=O)NCc3ccc(OC)cc3)C2=O)c(CC)c1 (stereo not shown) [Compound B189],pest or weed control at 250 g/ha,"[1]; post-emergence, 360 h, POST-emergence, rate 250 g/ha, visual score 15 DAA (100%=total damage, 0%=no damage), read-out: Post-emergence herbicidal activity (percentage phytotoxicity) ALOMY POST",90%
same,pest or weed control at 250 g/ha,"[1]; pre-emergence, 480 h, PRE-emergence, rate 250 g/ha, visual score 20 DAA (100%=total damage, 0%=no damage), read-out: Pre-emergence herbicidal activity (percentage phytotoxicity) ALOMY PRE",60%
same,pest or weed control at 250 g/ha,"Avena fatua (AVEFA); post-emergence, 360 h, POST-emergence, rate 250 g/ha, visual score 15 DAA (100%=total damage, 0%=no damage), read-out: Post-emergence herbicidal activity (percentage phytotoxicity) AVEFA POST",90%
same,pest or weed control at 250 g/ha,"Avena fatua (AVEFA); pre-emergence, 480 h, PRE-emergence, rate 250 g/ha, visual score 20 DAA (100%=total damage, 0%=no damage), read-out: Pre-emergence herbicidal activity (percentage phytotoxicity) AVEFA PRE",40%
same,pest or weed control at 250 g/ha,"[2]; post-emergence, 360 h, POST-emergence, rate 250 g/ha, visual score 15 DAA (100%=total damage, 0%=no damage), read-out: Post-emergence herbicidal activity (percentage phytotoxicity) ECHCG POST",100%
same,pest or weed control at 250 g/ha,"[2]; pre-emergence, 480 h, PRE-emergence, rate 250 g/ha, visual score 20 DAA (100%=total damage, 0%=no damage), read-out: Pre-emergence herbicidal activity (percentage phytotoxicity) ECHCG PRE",80%
same,pest or weed control at 250 g/ha,"Lolium perenne (LOLPE); post-emergence, 360 h, POST-emergence, rate 250 g/ha, visual score 15 DAA (100%=total damage, 0%=no damage), read-out: Post-emergence herbicidal activity (percentage phytotoxicity) LOLPE POST",90%
same,pest or weed control at 250 g/ha,"Lolium perenne (LOLPE); pre-emergence, 480 h, PRE-emergence, rate 250 g/ha, visual score 20 DAA (100%=total damage, 0%=no damage), read-out: Pre-emergence herbicidal activity (percentage phytotoxicity) LOLPE PRE",80%
Cc1cc(-c2ccc(F)cn2)cc(C)c1C1C(=O)CC(CC(=O)NC/C=C/Cl)C1=O (stereo not shown) [Compound B400],pest or weed control at 250 g/ha,[1]; [3],100%
same,pest or weed control at 250 g/ha,[1]; [4],100%
same,pest or weed control at 250 g/ha,Avena fatua (AVEFA); [5],100%
same,pest or weed control at 250 g/ha,Avena fatua (AVEFA); [6],100%
same,pest or weed control at 250 g/ha,[2]; [7],100%
same,pest or weed control at 250 g/ha,[2]; [8],100%
same,pest or weed control at 250 g/ha,Lolium perenne (LOLPE); [9],90%
same,pest or weed control at 250 g/ha,Lolium perenne (LOLPE); [10],100%
Cc1ccsc1CNC(=O)CC1CC(=O)C(c2c(C)cc(-c3ncc(Cl)cc3F)cc2C)C1=O (stereo not shown) [Compound A131],pest or weed control at 250 g/ha,"[1]; post-emergence, 360 h, Rate 250 g/ha, post-emergence, assessed visually 15 DAA, 100%=total damage, 0%=no damage, read-out: Post-emergence herbicidal activity (percentage phytotoxicity) ALOMY POST",90%
same,pest or weed control at 250 g/ha,"[1]; pre-emergence, 480 h, Rate 250 g/ha, pre-emergence, assessed visually 20 DAA, 100%=total damage, 0%=no damage, read-out: Pre-emergence herbicidal activity (percentage phytotoxicity) ALOMY PRE",40%
same,pest or weed control at 250 g/ha,"Avena fatua (AVEFA); post-emergence, 360 h, Rate 250 g/ha, post-emergence, assessed visually 15 DAA, 100%=total damage, 0%=no damage, read-out: Post-emergence herbicidal activity (percentage phytotoxicity) AVEFA POST",100%
same,pest or weed control at 250 g/ha,"Avena fatua (AVEFA); pre-emergence, 480 h, Rate 250 g/ha, pre-emergence, assessed visually 20 DAA, 100%=total damage, 0%=no damage, read-out: Pre-emergence herbicidal activity (percentage phytotoxicity) AVEFA PRE",50%
same,pest or weed control at 250 g/ha,"[2]; post-emergence, 360 h, Rate 250 g/ha, post-emergence, assessed visually 15 DAA, 100%=total damage, 0%=no damage, read-out: Post-emergence herbicidal activity (percentage phytotoxicity) ECHCG POST",100%
same,pest or weed control at 250 g/ha,"[2]; pre-emergence, 480 h, Rate 250 g/ha, pre-emergence, assessed visually 20 DAA, 100%=total damage, 0%=no damage, read-out: Pre-emergence herbicidal activity (percentage phytotoxicity) ECHCG PRE",100%
same,pest or weed control at 250 g/ha,"Lolium perenne (LOLPE); post-emergence, 360 h, Rate 250 g/ha, post-emergence, assessed visually 15 DAA, 100%=total damage, 0%=no damage, read-out: Post-emergence herbicidal activity (percentage phytotoxicity) LOLPE POST",100%
same,pest or weed control at 250 g/ha,"Lolium perenne (LOLPE); pre-emergence, 480 h, Rate 250 g/ha, pre-emergence, assessed visually 20 DAA, 100%=total damage, 0%=no damage, read-out: Pre-emergence herbicidal activity (percentage phytotoxicity) LOLPE PRE",70%
CC#Cc1cc(C)c(C2C(=O)CC(CC(=O)NCCCOC)C2=O)c(C)c1 (stereo not shown) [Compound B156],pest or weed control at 250 g/ha,"[1]; post-emergence, 360 h, 250 g/ha, post-emergence, 15 DAA, visual assessment (100%=total damage, 0%=no damage), read-out: Post-emergence herbicidal activity (percentage phytotoxicity) ALOMY POST",100%
same,pest or weed control at 250 g/ha,"[1]; pre-emergence, 480 h, 250 g/ha, pre-emergence, 20 DAA, visual assessment (100%=total damage, 0%=no damage), read-out: Pre-emergence herbicidal activity (percentage phytotoxicity) ALOMY PRE",100%
same,pest or weed control at 250 g/ha,"Avena fatua (AVEFA); post-emergence, 360 h, 250 g/ha, post-emergence, 15 DAA, visual assessment (100%=total damage, 0%=no damage), read-out: Post-emergence herbicidal activity (percentage phytotoxicity) AVEFA POST",100%
same,pest or weed control at 250 g/ha,"Avena fatua (AVEFA); pre-emergence, 480 h, 250 g/ha, pre-emergence, 20 DAA, visual assessment (100%=total damage, 0%=no damage), read-out: Pre-emergence herbicidal activity (percentage phytotoxicity) AVEFA PRE",100%
same,pest or weed control at 250 g/ha,"[2]; post-emergence, 360 h, 250 g/ha, post-emergence, 15 DAA, visual assessment (100%=total damage, 0%=no damage), read-out: Post-emergence herbicidal activity (percentage phytotoxicity) ECHCG POST",100%
same,pest or weed control at 250 g/ha,"[2]; pre-emergence, 480 h, 250 g/ha, pre-emergence, 20 DAA, visual assessment (100%=total damage, 0%=no damage), read-out: Pre-emergence herbicidal activity (percentage phytotoxicity) ECHCG PRE",100%
same,pest or weed control at 250 g/ha,"Lolium perenne (LOLPE); post-emergence, 360 h, 250 g/ha, post-emergence, 15 DAA, visual assessment (100%=total damage, 0%=no damage), read-out: Post-emergence herbicidal activity (percentage phytotoxicity) LOLPE POST",100%
same,pest or weed control at 250 g/ha,"Lolium perenne (LOLPE); pre-emergence, 480 h, 250 g/ha, pre-emergence, 20 DAA, visual assessment (100%=total damage, 0%=no damage), read-out: Pre-emergence herbicidal activity (percentage phytotoxicity) LOLPE PRE",100%
C#CCNC(=O)CC1CC(=O)C(c2c(C)cc(-c3ncc(F)cc3F)cc2C)C1=O (stereo not shown) [Compound B336],pest or weed control at 250 g/ha,[1]; [3],100%
same,pest or weed control at 250 g/ha,[1]; [4],100%
same,pest or weed control at 250 g/ha,Avena fatua (AVEFA); [5],100%
same,pest or weed control at 250 g/ha,Avena fatua (AVEFA); [6],100%
same,pest or weed control at 250 g/ha,[2]; [7],100%
same,pest or weed control at 250 g/ha,[2]; [8],100%
same,pest or weed control at 250 g/ha,Lolium perenne (LOLPE); [9],100%
same,pest or weed control at 250 g/ha,Lolium perenne (LOLPE); [10],100%
